Test results from patent publication US10821115B2, “Compounds that inhibit Mcl-1 protein” (priority 2017, dated 2020).
Like-named read-outs stand apart in the source and are kept apart here.

Tests used:
[1] = tested on: human multiple myeloma cell line, OPM-2; experiment: Cell viability assay (OPM-2 10 FBS), CellTiter-Glo; format: cell-based
How it was run: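 Cells were seeded at 3000 cells/well in RPMI 1640 with 10% FBS and exposed to serially diluted compounds for 16 h at 37 °C, 5% CO2.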

[2] = target: recombinant human Mcl-1 (residues 171-327) / Bim interaction (Homo sapiens (Human), UniProt Q07820); experiment: biochemical; format: binding; conditions: TR-FRET, Mcl-1(171-327) / biotin-Bim (51-76); read-out: Mcl-1 HTRF IC50
recombinant human Mcl-1 (residues 171-327) / Bim interaction, sequence (Q07820 171-327): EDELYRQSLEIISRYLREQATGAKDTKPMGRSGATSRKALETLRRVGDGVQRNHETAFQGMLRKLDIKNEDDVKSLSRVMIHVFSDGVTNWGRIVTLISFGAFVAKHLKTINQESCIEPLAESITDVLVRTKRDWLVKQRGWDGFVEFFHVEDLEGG

[3] = read-out: OPM-2 10% FBS IC50 IP, OPM-2 cells, 10% FBS, 16 h, CellTiter-Glo
[4] = Homo sapiens, OPM-2, 16 h, read-out: OPM-2 10% FBS IC50 IP, OPM-2 cells, 10% FBS, 16 h, CellTiter-Glo

Row | SMILES | IC50 [1, 3] [nM] | IC50 [2] [nM] | IC50 [1, 4] [nM]
1 | C[C@@H]1[C@@H](C)C/C=C/[C@](O)(Cc2ccnc(C#N)c2)[C@@H]2CC[C@H]2CN2C[C@@]3(CCCc4cc(Cl)ccc43)COc3ccc(cc32)C(=O)NS1(=O)=O [Example 100187, 4-(((1S,3′R,6′R,7′R,8′E,11′S,12′R)-6-chloro-7′-hydroxy-11′,12′-dimethyl-13′,13′-dioxido-15′-oxo-3,4-dihydro-2H-spiro[naphthalene-1,22′-[20]oxa[13]thia[1,14]diazatetracyclo [14.7.2.0~3,6~.0~19,24~]pentacosa[8,16,18,24]tetraen]-7′-yl)methyl)-2-pyridinecarbonitrile] | 3110 | 2.76 | –
2 | C[C@@H]1[C@@H](C)C/C=C/[C@](O)(Cc2ccnc(C#N)c2)[C@@H]2CC[C@H]2CN2C[C@@]3(CCCc4cc(Cl)ccc43)COc3ccc(cc32)C(=O)NS1(=O)=O [Example 100188, 4-(((1S,3′R,6′R,7′R,8′E,11′S,12′R)-6-chloro-7′-hydroxy-11′,12′-dimethyl-13′,13′-dioxido-15′-oxo-3,4-dihydro-2H-spiro[naphthalene-1,22′-[20]oxa[13]thia[1,14]diazatetracyclo [14.7.2.0~3,6~.0~19,24~]pentacosa[8,16,18,24]tetraen]-7′-yl)methyl)-2-pyridinecarbonitrile] | 735 | 0.877 | –
3 | COC[C@]1(OC)CCC[C@H](C)[C@@H](C)S(=O)(=O)NC(=O)c2ccc3c(c2)N(C[C@@H]2CC[C@H]21)C[C@@]1(CCCc2cc(Cl)ccc21)CO3 [Example 100189, (1S,3′R,6′R,7′S,11′S,12′R)-6-chloro-7′-methoxy-7′-(methoxymethyl)-11′,12′-dimethyl-3,4-dihydro-2H,15′H-spiro[naphthalene-1,22′-[20]oxa[13]thia[1,14]diazatetracyclo [14.7.2.0~3,6~.0~19,24~]pentacosa[16,18,24]trien]-15′-one 13′,13′-dioxide] | – | 0.82 | 701
4 | CCOC[C@@]1(O)CCC[C@H](C)[C@@H](C)S(=O)(=O)NC(=O)c2ccc3c(c2)N(C[C@@H]2CC[C@H]21)C[C@@]1(CCCc2cc(Cl)ccc21)CO3 [Example 100190, (1S,3′R,6′R,7′R,11′S,12′R)-6-chloro-7′-(ethoxymethyl)-7′-hydroxy-11′,12′-dimethyl-3,4-dihydro-2H,15′H-spiro[naphthalene-1,22′-[20]oxa[13]thia[1,14]diazatetracyclo [14.7.2.0~3,6~.0~19,24~]pentacosa[16,18,24]trien]-15′-one 13′,13′-dioxide] | – | 4.79 | 2480
5 | COc1cccc([C@]2(O)/C=C/C[C@H](C)[C@@H](C)S(=O)(=O)NC(=O)c3ccc4c(c3)N(C[C@@H]3CC[C@H]32)C[C@@]2(CCCc3cc(Cl)ccc32)CO4)n1 [Example 100191, (1S,3′R,6′R,7′S,8′E,11′S,12′R)-6-chloro-7′-hydroxy-7′-(6-methoxy-2-pyridinyl)-11′,12′-dimethyl-3,4-dihydro-2H,15′H-spiro[naphthalene-1,22′-[20]oxa[13]thia[1,14]diazatetracyclo [14.7.2.0~3,6~.0~19,24~]pentacosa[8,16,18,24]tetraen]-15′-one 13′,13′-dioxide] | – | 1.6 | 557
6 | COCCOC[C@]1(O)CCC[C@H](C)[C@@H](C)S(=O)(=O)NC(=O)c2ccc3c(c2)N(C[C@@H]2CC[C@H]21)C[C@@]1(CCCc2cc(Cl)ccc21)CO3 [Example 100192, (1S,3′R,6′R,7′S,11′S,12′R)-6-chloro-7′-hydroxy-7′-((2-methoxyethoxy)methyl)-11′,12′-dimethyl-3,4-dihydro-2H,15′H-spiro[naphthalene-1,22′-[20]oxa[13]thia[1,14]diazatetracyclo [14.7.2.0~3,6~.0~19,24~]pentacosa[16,18,24]trien]-15′-one 13′,13′-dioxide] | – | 0.192 | 149
7 | COCCOC[C@@]1(O)CCC[C@H](C)[C@@H](C)S(=O)(=O)NC(=O)c2ccc3c(c2)N(C[C@@H]2CC[C@H]21)C[C@@]1(CCCc2cc(Cl)ccc21)CO3 [Example 100193, (1S,3′R,6′R,7′R,11′S,12′R)-6-chloro-7′-hydroxy-7′-((2-methoxyethoxy)methyl)-11′,12′-dimethyl-3,4-dihydro-2H,15′H-spiro[naphthalene-1,22′-[20]oxa[13]thia[1,14]diazatetracyclo [14.7.2.0~3,6~.0~19,24~]pentacosa[16,18,24]trien]-15′-one 13′,13′-dioxide] | – | 0.856 | 1300
8 | C[C@@H]1[C@@H](C)CCC[C@@](O)(COCCN(C)C)[C@@H]2CC[C@H]2CN2C[C@@]3(CCCc4cc(Cl)ccc43)COc3ccc(cc32)C(=O)NS1(=O)=O [Example 100194, (1S,3′R,6′R,7′S,11S,12R)-6-chloro-7′-((2-(dimethylamino)ethoxy)methyl)-7′-hydroxy-11′,12′-dimethyl-3,4-dihydro-2H,15′H-spiro[naphthalene-1,22′-[20]oxa[13]thia[1,14]diazatetracyclo [14.7.2.0~3,6~.0~19,24~]pentacosa[16,18,24]trien]-15′-one 13′,13′-dioxide] | – | 0.613 | 619
9 | C[C@@H]1[C@@H](C)CCC[C@](O)(COCCN(C)C)[C@@H]2CC[C@H]2CN2C[C@@]3(CCCc4cc(Cl)ccc43)COc3ccc(cc32)C(=O)NS1(=O)=O [Example 100195, (1S,3′R,6′R,7′R,11′S,12′R)-6-chloro-7′-((2-(dimethylamino)ethoxy)methyl)-7′-hydroxy-11′,12′-dimethyl-3,4-dihydro-2H,15′H-spiro[naphthalene-1,22′-[20]oxa[13]thia[1,14]diazatetracyclo [14.7.2.0~3,6~.0~19,24~]pentacosa[16,18,24]trien]-15′-one 13′,13′-dioxide] | – | 1.07 | 625
10 | C[C@@H]1[C@@H](C)CCC[C@@]2(CC(N(C)C)=NO2)[C@@H]2CC[C@H]2CN2C[C@@]3(CCCc4cc(Cl)ccc43)COc3ccc(cc32)C(=O)NS1(=O)=O [Example 100197, (1S,3′R,6′R,7′R,11′S,12′R)-6-chloro-3″- (dimethylamino)-11′,12′-dimethyl-3,4-dihydro-2H,4″H,15′H-dispiro[naphthalene-1,22′-[20]oxa[13]thia[1,14]diazatetracyclo [14.7.2.0~3,6~.0~19,24~]pentacosa[16,18,24]triene-7′,5″-[1,2]oxazol]-15′-one 13′,13′-dioxide] | – | 0.774 | 2460
11 | C[C@@H]1[C@@H](C)C/C=C/[C@](O)(c2nccn2C)[C@@H]2CC[C@H]2CN2C[C@@]3(CCCc4cc(Cl)ccc43)COc3ccc(cc32)C(=O)NS1(=O)=O [Example 100198, (1S,3′R,6′R,7′R,8′E,11′S,12′R)-6-chloro-7′-hydroxy-11′,12′-dimethyl-7′-(1-methyl-1H-imidazol-2-yl)-3,4-dihydro-2H,15′H-spiro[naphthalene-1,22′-[20]oxa[13]thia[1,14]diazatetracyclo [14.7.2.0~3,6~.0~19,24~]pentacosa[8,16,18,24]tetraen]-15′-one 13′,13′-dioxide] | 399 | 0.307 | –
12 | C[C@@H]1[C@@H](C)C/C=C/[C@@](O)(c2nccn2C)[C@@H]2CC[C@H]2CN2C[C@@]3(CCCc4cc(Cl)ccc43)COc3ccc(cc32)C(=O)NS1(=O)=O [Example 100199, (1S,3′R,6′R,7′S,8′E,11′S,12′R)-6-chloro-7′-hydroxy-11′,12′-dimethyl-7′-(1-methyl-1H-imidazol-2-yl)-3,4-dihydro-2H,15′H-spiro[naphthalene-1,22′-[20]oxa[13]thia[1,14]diazatetracyclo [14.7.2.0~3,6~.0~19,24~]pentacosa[8,16,18,24]tetraen]-15′-one 13′,13′-dioxide] | – | 0.166 | 148
13 | C[C@@H]1[C@@H](C)C/C=C/[C@@](O)(c2nc(CO)nn2C)[C@@H]2CC[C@H]2CN2C[C@@]3(CCCc4cc(Cl)ccc43)COc3ccc(cc32)C(=O)NS1(=O)=O [Example 100200, (1S,3′R,6′R,7′S,8′E,11′S,12′R)-6-chloro-7′-hydroxy-7′-(3-(hydroxymethyl)-1-methyl-1H-1,2,4-triazol-5-yl)-11′,12′-dimethyl-3,4-dihydro-2H,15′H-spiro[naphthalene-1,22′-[20]oxa[13]thia[1,14]diazatetracyclo [14.7.2.0~3,6~.0~19,24~]pentacosa[8,16,18,24]tetraen]-15′-one 13′,13′-dioxide] | – | 0.213 | 1070
14 | C[C@@H]1[C@@H](C)C/C=C/[C@](O)(c2nc(CO)nn2C)[C@@H]2CC[C@H]2CN2C[C@@]3(CCCc4cc(Cl)ccc43)COc3ccc(cc32)C(=O)NS1(=O)=O [Example 100201, (1S,3′R,6′R,7′R,8′E,11′S,12′R)-6-chloro-7′-hydroxy-7′-(3-(hydroxymethyl)-1-methyl-1H-1,2,4-triazol-5-yl)-11′,12′-dimethyl-3,4-dihydro-2H,15′H-spiro[naphthalene-1,22′-[20]oxa[13]thia[1,14]diazatetracyclo [14.7.2.0~3,6~.0~19,24~]pentacosa[8,16,18,24]tetraen]-15′-one 13′,13′-dioxide] | – | 0.086 | 307
15 | C[C@@H]1[C@@H](C)CCC[C@@](O)([C@@H]2CCN(C)C2=O)[C@@H]2CC[C@H]2CN2C[C@@]3(CCCc4cc(Cl)ccc43)COc3ccc(cc32)C(=O)NS1(=O)=O [Example 100202, (1S,3′R,6′R,7′S,11′S,12′R)-6-chloro-7′-hydroxy-11′,12′-dimethyl-7′-((3S)-1-methyl-2-oxo-3-pyrrolidinyl)-3,4-dihydro-2H,15′H-spiro[naphthalene-1,22′-[20]oxa[13]thia[1,14]diazatetracyclo [14.7.2.0~3,6~.0~19,24~]pentacosa[16,18,24]trien]-15′-one 13′,13′-dioxide] | 928 | 0.352 | –
